Laboratory results taken from patent publication EP0435794A1, “Alkenyl- or heteroaryl thio, sulfone, sulfoxy herbicides” (RHONE-POULENC AGROCHIMIE, priority 1989, dated 1991).

Columns and labels:
Format in all cases: in vivo
Echinochloa crus-galli = assay: Exemple C: selectivity test in field crops, pre-emergence (weed); details: 24 days
Excerpt: (§1) Exemple C - Essai de sélectivité en grandes cultures avec application herbicide, en prélevée des espèces végétales
(§2) Dans des pots de 7 X 7 X 8 cm remplis de terre agricole légère, on sème un nombre de graines déterminé en fonction de l'espèce végétale et de la grosseur de la graine.
(§3) On recouvre ensuite les graines d'une couche de terre d'environ 3 mm d'épaisseur.
(§4) Les pots sont alors traités par pulvérisation de bouillie en quantité correspondant à une dose volumique d'application de 500 l/ha et contenant la matière active à la concentration désirée.
(§5) La bouillie a été préparée de la même manière qu'à l'exemple A.
(§6) Les pots traités sont ensuite placés dans des bacs destinés à recevoir l'eau d'arrosage, en subirrigation, et maintenus pendant 24 jours à température ambiante sous 70 % d'humidité relative.
(§7) Le relevé est effectué de la façon suivante:
(§8) Au bout de 24 jours, on mesure un pourcentage (D) de destruction du nombre de pieds dans le pot traité par rapport au nombre de plantes dans les pots non traités (témoin). On mesure, sur les plantes traitées restantes, le pourcentage de réduction de taille (RT) par rapport aux plantes témoins.
(§9) Le pourcentage de volume foliaire non détruit par le produit est donc donné par la formule: ([100-D] X [100-RT])/(100)= A [formula]
(§10) Cette valeur A est transformée en notation de 0 à 5 selon l'échelle suivante:
(§11) Ainsi, un produit est jugé comme sélectif vis à vis de la culture lorsque la valeur A notée est de 0 ou 1.
(§12) Les résultats obtenus sont présentés dans l'exemple C pour des doses d'application de 500, 1000, 2000 ou 4000 g de matière active par hectare selon les produits.
(§13) Les espèces végétales utilisées dans cet exemple sont: […]

Setaria faberii = assay: as above; details: 24 days
Excerpt: as §1, §2, §3, §4, §5, §6, §7, §8, §9, §10, §11, §12, §13

Sorghum halepense = assay: as above; details: 24 days
Excerpt: as §1, §2, §3, §4, §5, §6, §7, §8, §9, §10, §11, §12, §13

Digitaria sanguinalis = assay: as above; details: 24 days
Excerpt: as §1, §2, §3, §4, §5, §6, §7, §8, §9, §10, §11, §12, §13

Alopecurus myosuroides = assay: as above; details: 24 days
Excerpt: as §1, §2, §3, §4, §5, §6, §7, §8, §9, §10, §11, §12, §13

Panicum milicaeum = assay: as above; details: 24 days
Excerpt: as §1, §2, §3, §4, §5, §6, §7, §8, §9, §10, §11, §12, §13

soja = assay: Exemple C: selectivity test in field crops, pre-emergence (crop); details: 24 days, 0 or 1 = selective; also: ranges in brackets are in %
Excerpt: as §1, §2, §3, §4, §5, §6, §7, §8, §9, §10, §11, §12
(§14) Les espèces végétales utilisées dans cet exemple sont:
(§15) Comme on peut le voir sur le tableau de résultats de cet exemple C, de nombreux produits présentent une excellente activité antigraminée de prélevée tout en montrant une excellente sélectivité pour 1 ou 2 ou 3 ou 4 des 4 cultures testées = blé, maïs, riz, soja.

riz = assay: as above; details: 24 days, 0 or 1 = selective; also: ranges in brackets are in %
Excerpt: as §1, §2, §3, §4, §5, §6, §7, §8, §9, §10, §11, §12, §14, §15

maïs = assay: as above; details: 24 days, 0 or 1 = selective; also: ranges in brackets are in %
Excerpt: as §1, §2, §3, §4, §5, §6, §7, §8, §9, §10, §11, §12, §14, §15

blé = assay: as above; details: 24 days, 0 or 1 = selective; also: ranges in brackets are in %
Excerpt: as §1, §2, §3, §4, §5, §6, §7, §8, §9, §10, §11, §12, §14, §15

For `C=C(CS(=O)(=O)c1sc(C)nc1C)c1cccc(C)c1` [compound 47], the “Notation de l'activité herbicide ECh” value (Echinochloa crus-galli; dose 1 Kg m.a./ha) was 4 (10 à 30), the “Notation de l'activité herbicide SET” value (Setaria faberii; dose 1 Kg m.a./ha) was 2 (50 à 70) and the “Notation de l'activité herbicide SOR” value (Sorghum halepense; dose 1 Kg m.a./ha) was 3 (30 à 50). For the same compound, the “Notation de l'activité herbicide DIG” value (Digitaria sanguinalis; dose 1 Kg m.a./ha) was 5 (O à 10), the “Notation de l'activité herbicide ALO” value (Alopecurus myosuroides; dose 1 Kg m.a./ha) was 5 (O à 10) and the “Notation de l'activité herbicide PAN” value (Panicum milicaeum; dose 1 Kg m.a./ha) was 5 (O à 10). The “Notation de l'activité herbicide GLY” value (soja; dose 1 Kg m.a./ha) was 0 (90 à 100), the “Notation de l'activité herbicide ORY” value (riz; dose 1 Kg m.a./ha) was 2 (50 à 70) and the “Notation de l'activité herbicide ZEA” value (maïs; dose 1 Kg m.a./ha) was 1 (70 à 90). For the same compound, the “Notation de l'activité herbicide TRZ” value (blé; dose 1 Kg m.a./ha) was 0 (90 à 100).

In the case of `CS(=O)(=O)OCC(O)(CS(=O)(=O)c1cccs1)c1cc(Cl)cc(Cl)c1` (stereo not shown) [compound 56, 2-(3,5-dichlorophényl) 1-méthylsulfonate 3-(2-thiénylsulfonyl) 2-propanol], the “Notation de l'activité herbicide ECh” value (Echinochloa crus-galli; dose 1 Kg m.a./ha) is reported as 5 (O à 10), the “Notation de l'activité herbicide SET” value (Setaria faberii; dose 1 Kg m.a./ha) is reported as 5 (O à 10) and the “Notation de l'activité herbicide SOR” value (Sorghum halepense; dose 1 Kg m.a./ha) is reported as 2 (50 à 70). The “Notation de l'activité herbicide DIG” value (Digitaria sanguinalis; dose 1 Kg m.a./ha) was 5 (O à 10), the “Notation de l'activité herbicide PAN” value (Panicum milicaeum; dose 1 Kg m.a./ha) was 5 (O à 10) and the “Notation de l'activité herbicide GLY” value (soja; dose 1 Kg m.a./ha) was 0 (90 à 100). The “Notation de l'activité herbicide ORY” value (riz; dose 1 Kg m.a./ha) was 2 (50 à 70), the “Notation de l'activité herbicide ZEA” value (maïs; dose 1 Kg m.a./ha) was 1 (70 à 90) and the “Notation de l'activité herbicide TRZ” value (blé; dose 1 Kg m.a./ha) was 2 (50 à 70).

`C=C(CS(=O)(=O)/C=C/C)c1ccccc1` [compound 70, (E)-2-phényl 1-(1-propénylsulfonyl)2-propène] was tested, and the “Notation de l'activité herbicide ECh” value (Echinochloa crus-galli; dose 2 Kg m.a./ha) was 5 (O à 10), the “Notation de l'activité herbicide SET” value (Setaria faberii; dose 2 Kg m.a./ha) was 3 (30 à 50) and the “Notation de l'activité herbicide SOR” value (Sorghum halepense; dose 2 Kg m.a./ha) was 5 (O à 10). The “Notation de l'activité herbicide ALO” value (Alopecurus myosuroides; dose 2 Kg m.a./ha) was 4 (10 à 30), the “Notation de l'activité herbicide PAN” value (Panicum milicaeum; dose 2 Kg m.a./ha) was 3 (30 à 50) and the “Notation de l'activité herbicide GLY” value (soja; dose 2 Kg m.a./ha) was 0 (90 à 100). The “Notation de l'activité herbicide ORY” value (riz; dose 2 Kg m.a./ha) was 1 (70 à 90), the “Notation de l'activité herbicide ZEA” value (maïs; dose 2 Kg m.a./ha) was 0 (90 à 100) and the “Notation de l'activité herbicide TRZ” value (blé; dose 2 Kg m.a./ha) was 2 (50 à 70).

For `O=S(=O)(CC(O)(CBr)c1cc(Cl)cc(Cl)c1)c1cccs1` (stereo not shown) [compound 62], the “Notation de l'activité herbicide ECh” value (Echinochloa crus-galli; dose 1 Kg m.a./ha) was 5 (O à 10), the “Notation de l'activité herbicide SET” value (Setaria faberii; dose 1 Kg m.a./ha) was 4 (10 à 30) and the “Notation de l'activité herbicide SOR” value (Sorghum halepense; dose 1 Kg m.a./ha) was 2 (50 à 70). The “Notation de l'activité herbicide DIG” value (Digitaria sanguinalis; dose 1 Kg m.a./ha) was 5 (O à 10), the “Notation de l'activité herbicide PAN” value (Panicum milicaeum; dose 1 Kg m.a./ha) was 4 (10 à 30) and the “Notation de l'activité herbicide GLY” value (soja; dose 1 Kg m.a./ha) was 0 (90 à 100). The “Notation de l'activité herbicide ORY” value (riz; dose 1 Kg m.a./ha) was 2 (50 à 70), the “Notation de l'activité herbicide ZEA” value (maïs; dose 1 Kg m.a./ha) was 1 (70 à 90) and the “Notation de l'activité herbicide TRZ” value (blé; dose 1 Kg m.a./ha) was 2 (50 à 70).

For `C=C(CS(=O)(=O)c1sc(C)nc1C)c1cccc(F)c1` [compound 45], the “Notation de l'activité herbicide ECh” value (Echinochloa crus-galli; dose 1 Kg m.a./ha) was 5 (O à 10), the “Notation de l'activité herbicide SET” value (Setaria faberii; dose 1 Kg m.a./ha) was 3 (30 à 50) and the “Notation de l'activité herbicide SOR” value (Sorghum halepense; dose 1 Kg m.a./ha) was 5 (O à 10). For the same compound, the “Notation de l'activité herbicide DIG” value (Digitaria sanguinalis; dose 1 Kg m.a./ha) was 4 (10 à 30), the “Notation de l'activité herbicide ALO” value (Alopecurus myosuroides; dose 1 Kg m.a./ha) was 5 (O à 10) and the “Notation de l'activité herbicide PAN” value (Panicum milicaeum; dose 1 Kg m.a./ha) was 5 (O à 10). The “Notation de l'activité herbicide GLY” value (soja; dose 1 Kg m.a./ha) was 0 (90 à 100), the “Notation de l'activité herbicide ORY” value (riz; dose 1 Kg m.a./ha) was 0 (90 à 100) and the “Notation de l'activité herbicide ZEA” value (maïs; dose 1 Kg m.a./ha) was 0 (90 à 100). For the same compound, the “Notation de l'activité herbicide TRZ” value (blé; dose 1 Kg m.a./ha) was 1 (70 à 90).

In the case of `Cc1cc(C(O)(CBr)CS(=O)(=O)c2ccsc2)ccc1F` (stereo not shown) [compound 66], the “Notation de l'activité herbicide ECh” value (Echinochloa crus-galli; dose 1 Kg m.a./ha) is reported as 5 (O à 10), the “Notation de l'activité herbicide SET” value (Setaria faberii; dose 1 Kg m.a./ha) is reported as 3 (30 à 50) and the “Notation de l'activité herbicide SOR” value (Sorghum halepense; dose 1 Kg m.a./ha) is reported as 5 (O à 10). For the same compound, the “Notation de l'activité herbicide DIG” value (Digitaria sanguinalis; dose 1 Kg m.a./ha) was 5 (O à 10), the “Notation de l'activité herbicide ALO” value (Alopecurus myosuroides; dose 1 Kg m.a./ha) was 3 (30 à 50) and the “Notation de l'activité herbicide PAN” value (Panicum milicaeum; dose 1 Kg m.a./ha) was 3 (30 à 50). For the same compound, the “Notation de l'activité herbicide GLY” value (soja; dose 1 Kg m.a./ha) was 1 (70 à 90), the “Notation de l'activité herbicide ORY” value (riz; dose 1 Kg m.a./ha) was 2 (50 à 70) and the “Notation de l'activité herbicide ZEA” value (maïs; dose 1 Kg m.a./ha) was 2 (50 à 70). The “Notation de l'activité herbicide TRZ” value (blé; dose 1 Kg m.a./ha) was 1 (70 à 90).

With `O=S(=O)(CC(O)(CBr)c1cccc(F)c1)c1sccc1Cl` (stereo not shown) [compound 67] the “Notation de l'activité herbicide ECh” value (Echinochloa crus-galli; dose 0.5 Kg m.a./ha) was 4 (10 à 30), the “Notation de l'activité herbicide SET” value (Setaria faberii; dose 0.5 Kg m.a./ha) was 4 (10 à 30) and the “Notation de l'activité herbicide SOR” value (Sorghum halepense; dose 0.5 Kg m.a./ha) was 1 (70 à 90). For the same compound, the “Notation de l'activité herbicide DIG” value (Digitaria sanguinalis; dose 0.5 Kg m.a./ha) was 5 (O à 10), the “Notation de l'activité herbicide ALO” value (Alopecurus myosuroides; dose 0.5 Kg m.a./ha) was 2 (50 à 70) and the “Notation de l'activité herbicide PAN” value (Panicum milicaeum; dose 0.5 Kg m.a./ha) was 4 (10 à 30). The “Notation de l'activité herbicide GLY” value (soja; dose 0.5 Kg m.a./ha) was 0 (90 à 100), the “Notation de l'activité herbicide ORY” value (riz; dose 0.5 Kg m.a./ha) was 0 (90 à 100) and the “Notation de l'activité herbicide ZEA” value (maïs; dose 0.5 Kg m.a./ha) was 1 (70 à 90). The “Notation de l'activité herbicide TRZ” value (blé; dose 0.5 Kg m.a./ha) was 0 (90 à 100).
